Data published in PubChem BioAssay (NCI).
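Compound exposure: 48 hours, 5 concentrations, 96-well plates. GI50 = concentration required for 50% inhibition of growth. The concentration for full growth arrest is given as TGI.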 Where a SMILES comes first, the peptide text is derived from it. [ ]: non-standard residue; d: D form. The star is where a group is joined. ξ: configuration not given here. 4Abz = Nc1ccc(C(=O)O)cc1; ξL = CC(C)CC(N)C(=O)O; NHOH = ON*

Key:
Assay in all cases: NCI tumour cell line growth inhibition, 48 h
HL-60(TB) leukemia = tested on: HL-60(TB) leukemia
OVCAR-8 ovarian = tested on: OVCAR-8 ovarian
UACC-257 melanoma = tested on: UACC-257 melanoma
OVCAR-3 ovarian = tested on: OVCAR-3 ovarian
SK-MEL-5 melanoma = tested on: SK-MEL-5 melanoma
TK-10 renal = tested on: TK-10 renal
SNB-19 CNS = tested on: SNB-19 CNS
SR leukemia = tested on: SR leukemia
SF-539 CNS = tested on: SF-539 CNS
DU-145 prostate = tested on: DU-145 prostate

Structure (SMILES)	TGI (HL-60(TB) leukemia)	TGI (OVCAR-8 ovarian)	TGI (UACC-257 melanoma)	TGI (OVCAR-3 ovarian)	TGI (SK-MEL-5 melanoma)	TGI (TK-10 renal)	TGI (SNB-19 CNS)	TGI (SR leukemia)	TGI (SF-539 CNS)	GI50 (DU-145 prostate)	TGI (DU-145 prostate)	GI50 (OVCAR-8 ovarian)	GI50 (UACC-257 melanoma)	GI50 (OVCAR-3 ovarian)	GI50 (SK-MEL-5 melanoma)	GI50 (TK-10 renal)	GI50 (SNB-19 CNS)	GI50 (SF-539 CNS)	GI50 (HL-60(TB) leukemia)	GI50 (SR leukemia)
CCCCCCCCOCC(O)COC (centres undefined)	> 100 µM	> 100 µM	> 100 µM	> 100 µM	> 100 µM	> 100 µM	> 100 µM	> 100 µM	–	–	–	–	–	–	–	–	–	–	–	–
NC(N)=Nc1nc2cc(N)ccc2o1	> 100 µM	> 100 µM	> 100 µM	–	–	> 100 µM	> 100 µM	> 100 µM	> 100 µM	–	–	–	–	–	–	–	–	–	–	–
COc1cc(OC)c(Oc2cccc(OC)c2OC)c(OC)c1	–	> 100 µM	> 100 µM	> 100 µM	> 100 µM	> 100 µM	> 100 µM	> 100 µM	> 100 µM	–	–	–	–	–	–	–	–	–	–	–
COc1cc2c3c(c1OC)C1(C=CC(=O)C=C1)CC3N(C(=O)OC(C)(C)C(Cl)(Cl)Cl)CC2 (centres undefined)	8.26 µM	31.5 µM	26.2 µM	20.7 µM	20.7 µM	> 100 µM	32.2 µM	23.4 µM	30.4 µM	–	–	–	–	–	–	–	–	–	–	–
O=C1C=Cc2cc3ccccc3c3cccc1c23	–	16.7 µM	19.2 µM	19 µM	5.87 µM	42.3 µM	> 100 µM	–	–	9.53 µM	> 100 µM	3.3 µM	4.29 µM	3.9 µM	2.73 µM	9.55 µM	8.51 µM	–	–	–
Cc1ccc(NC(=O)C(=O)C2C(=O)C3=C(CC2(C)C)NC2C=CC=CC2S3)c(C)c1 (centres undefined)	> 100 µM	> 100 µM	> 100 µM	–	> 100 µM	> 100 µM	> 100 µM	–	> 100 µM	–	> 100 µM	–	–	–	–	–	–	–	–	–
O=C(Nc1ccc(Cl)cc1Cl)c1c/c(=N\O)c2ccc(O)cc2o1	> 100 µM	> 100 µM	> 100 µM	> 100 µM	> 100 µM	> 100 µM	> 100 µM	> 100 µM	> 100 µM	–	–	–	–	–	–	–	–	–	–	–
C=C1c2c(C)nn(-c3ccccc3)c2N(C)C23C[C@@H]1C1(C)c4c(C)nn(-c5ccccc5)c4N(C)C(C)(C[C@H]12)C3 (some centres undefined)	–	> 100 µM	> 100 µM	> 100 µM	–	24.5 µM	79.6 µM	–	> 100 µM	8.7 µM	> 100 µM	5.41 µM	2.87 µM	4.58 µM	–	4.77 µM	11 µM	26.7 µM	–	–
COc1ccc(-n2cc(-c3ccc(Cl)cc3)[nH]c2=S)cc1Cl	> 100 µM	> 100 µM	> 100 µM	> 100 µM	> 100 µM	> 100 µM	55 µM	–	44.3 µM	37.2 µM	> 100 µM	37.4 µM	> 100 µM	31.8 µM	42.1 µM	47.3 µM	20.1 µM	19.9 µM	> 100 µM	–
COC(=O)C(=O)C(C(=O)C(=O)Nc1ccc(Cl)cc1Cl)c1nc2ccc(Cl)cc2[nH]c1=O (centres undefined)	> 100 µM	> 100 µM	> 100 µM	> 100 µM	> 100 µM	> 100 µM	> 100 µM	–	> 100 µM	–	> 100 µM	–	–	–	–	–	–	–	–	–
COC(=O)c1ccc2n[se]nc2c1	> 100 µM	> 100 µM	> 100 µM	–	> 100 µM	> 100 µM	> 100 µM	> 100 µM	> 100 µM	–	–	–	–	–	–	–	–	–	–	–
CC(C)(C)NC(=O)C12C3C4C1C1C2C3C41I (centres undefined)	> 100 µM	> 100 µM	> 100 µM	–	–	> 100 µM	> 100 µM	> 100 µM	> 100 µM	–	–	–	–	–	–	–	–	–	–	–
C[N+](C)(C)CC(=O)NC(=O)N/N=C\C(CC#N)CN(Cc1ccccc1)Cc1ccccc1 (centres undefined)	> 100 µM	> 100 µM	> 100 µM	> 100 µM	> 100 µM	> 100 µM	> 100 µM	> 100 µM	> 100 µM	–	–	–	–	–	–	–	–	–	–	–
CC(C)CC(NC(=O)[C@@H]1CCCN1C(=O)CNC(=O)c1ccc(N)cc1)C(=O)N[C@H](C)C(=O)NO (some centres undefined) (H-[4Abz]GP[ξL][dA]-{NHOH})	–	> 100 µM	> 100 µM	> 100 µM	> 100 µM	> 100 µM	> 100 µM	–	> 100 µM	> 100 µM	> 100 µM	> 100 µM	> 100 µM	> 100 µM	> 100 µM	> 100 µM	> 100 µM	> 100 µM	–	–
CN1CCN(c2nc(NCCNc3ccnc4cc(Cl)ccc34)c3ccccc3n2)CC1	3.5 µM	5.75 µM	3.18 µM	7.44 µM	3.12 µM	7.93 µM	15.2 µM	3.67 µM	3.34 µM	–	–	2.12 µM	1.71 µM	2.21 µM	1.72 µM	2.72 µM	3.34 µM	1.77 µM	1.74 µM	1.3 µM
O=c1c2ccccc2oc2nccnc12	–	> 100 µM	> 100 µM	> 100 µM	> 100 µM	> 100 µM	> 100 µM	–	> 100 µM	–	–	–	–	–	–	–	–	–	–	–
NNC(=S)N/N=C(\c1nc2ccc(Cl)cc2[nH]c1=O)C(O)c1ccc(Cl)cc1Cl (centres undefined)	> 100 µM	> 100 µM	> 100 µM	–	> 100 µM	> 100 µM	> 100 µM	> 100 µM	> 100 µM	–	–	–	–	–	–	–	–	–	–	–
Cn1c(=O)c(C2c3ccccc3Oc3c2c(=O)n(C)c2ccccc32)c(O)c2ccccc21 (centres undefined)	79.2 µM	> 100 µM	73.7 µM	> 100 µM	> 100 µM	83.8 µM	> 100 µM	> 100 µM	> 100 µM	–	–	–	–	–	–	–	–	–	–	–
O=C(N/C(=C\c1cc(Cl)ccc1Cl)c1nc2ccccc2[nH]1)c1ccccc1	67 µM	46.9 µM	–	> 100 µM	53.3 µM	> 100 µM	> 100 µM	81.7 µM	> 100 µM	–	–	–	–	–	–	–	–	–	–	–
